Laboratory results from patent publication US20050014731A1, “Treatment of Th1 dominated immunological disease states with non-endogenous gestagen compounds” (Solvay Pharmaceuticals GmbH, priority 2002, published 2005).

Legend:
[1] = system: Th1 cytokine production to trophoblast; settings: in vitro, women with recurrent pregnancy loss; Choi et al., Human Reproduction 15/1 (2000) 46-59; cited from earlier work
pregnant mice = assay: murine stress-induced abortion model; type: in vivo
From the text: The results of the pharmacological test method given above can also be confirmed in an in vivo test model involving pregnant mice. […] Pregnant mice were exposed to ultrasound on day 5 of gestation. This stress increased the abortion rate of these mice from around 12% to 44%. Treatment with dydrogesterone reduced the abortion in a dose-related manner to as low as 5%.

[2] = system: peripheral blood mononuclear cells (=PBMC); assay: Th1 and Th2 cytokine profiles produced by mitogen-stimulated PBMC (ELISA), ex vivo; type: cell-based, human
Description: The effects of dydrogesterone on Th1 and Th2 cytokine profiles produced by mitogen-stimulated peripheral blood mononuclear cells (=PBMC) were determined. Several studies have pointed to a deviation of cytokine profiles in women when during pregnancy. Pregnancy is associated with a shift towards Th2 bias, evinced by changes in peripheral T cells, by cytokine production by peripheral lymphocytes and by cytokine changes at the maternal-fetal interface. Unexplained recurrent spontaneous abortion (URSA) seems to be associated with a stronger bias towards Th1 cytokines. Women who have earlier been gone through URSA may therefore be regarded as a pre-selected group of patients that will typically respond to an immunological stimulation by showing a Th1 dominated pattern of immune response. The pharmacological test was therefore performed with a suitable URSA group which comprised of women admitted with spontaneous abortion for evacuation, (i) who have had at least two previous unexplained miscarriages, (ii) who were currently undergoing at least a 3rd abortion and (iii) who had been fully investigated. The relationship between habitual abortion and cytokine production response in 54 women with normal pregnancy (and at least 3 previous normal pregnancies) and 23 women with a history of habitual abortion of unexplained aetiology (URSA group) has been investigated. Mitogen-induced stimulation of Peripheral Blood Mononuclear Cells (PBMC): Peripheral blood was obtained by venipuncture from the abortion group on the day of abortion. PBMC is separated by Ficoll-paque (Pharmacia Biotech, Sweden) density gradient centrifugation, suspended in RPMI medium (=“Roswell Park Memorial Institute”-medium; obtained from GIBCO/BRL, USA) containing 10% fetal calf serum, aliquoted into 96 well tissue culture plates at a density of 100.000 cells per well and then stimulated with the mitogen phytohemagglutinin (=PHA, Sigma Chemicals, USA) at a concentration of […] for a period of 96 hours, with autologous placental antigens or with trophoblast antigens. Progesterone, dydrogesterone (Duphaston®) and RU486 (=mifepristone) was added in different combinations as described below. Progesterone was tested at concentrations of […]. RU486 was tested at equivalent concentrations. Culture supernatants were harvested at 96 hours for determination of the levels of cytokines secreted by the PBMC into the supernatants. Cytokine levels were determined in the supernatants by enzyme-linked immunosorbent assay (=ELISA). Protocol of Experimental Samples: Each sample was tested in the following manner: • PBMC+mitogen • PBMC+mitogen+progesterone • PBMC+mitogen+progesterone+RU486 • PBMC+mitogen+dydrogesterone • PBMC+mitogen+dydrogesterone+RU486 • PBMC+mitogen+Carrier • PBMC+mitogen+Carrier+RU486 Determination of cytokine levels by ELISA: Th1 cytokines TNF-α and IFN-γ, and Th2 cytokines IL-4, IL-6 and IL-10 were evaluated in these samples by ELISA using kits that were obtained from Immunotech SA, France. These consisted of “sandwich ELISA”; briefly the first step leads to the capture of the relevant cytokine by monoclonal anti-cytokine antibodies bound to the wells of microtiter plates. In the second step, a second biotinylated monoclonal is added together with streptavidin-enzyme (peroxidase or alkaline phosphatase) conjugate. The biotinylated antibody binds to the solid phase antibody-antigen complex, and in turn, binds the conjugate. After incubation the wells are washed and the binding of the streptavidin-enzyme via biotin is followed by the addition of a chromogenic substrate. The intensity of the coloration produced is proportional to the concentration of the cytokine in the sample. Standard curves are plotted for each of the cytokines using reference recombinant cytokines and the results are read from these curves. The sensitivity of each of the assays is as follows: 5 pg/ml of TNF-α, 0.08 IU/ml of IFN-γ, 5 pg/ml of IL-4 and 5 pg/ml of IL-10. […]

[3] = PHA-stimulated PBMC supernatant, ELISA, 96 hours
[4] = women with spontaneous abortion and habitual abortion

For `CC(=O)[C@H]1CC[C@H]2[C@@H]3CCC4=CC(=O)CC[C@]4(C)[C@H]3CC[C@]12C` [progesterone], the “embryotoxic Th1 cytokine production to trophoblast” value [1] is listed as “inhibits”.

In the case of `CC(=O)[C@H]1CC[C@H]2[C@@H]3C=CC4=CC(=O)CC[C@@]4(C)[C@@H]3CC[C@]12C` [dydrogesterone], the Th1/Th2-cytokine production (pregnant mice; murine stress-induced abortion model) was “shift from Th1 to Th2-cytokine production”, the abortion rate (pregnant mice; pregnant mice exposed to ultrasound on day 5 of gestation, dose-related, stress raised rate from around 12% to 44%) was no less than 5% and the “level of IL-4” value (pregnant mice; pregnant mice exposed to ultrasound stress on day 5 of gestation) was “increased level”. The IFN-γ [2, 3] was “reduction of IFN-γ”, the “Interleukin 4” value [2, 3] was “marked increase” and the “Interleukin 6” value [2, 3] was “marked increase”. For the same compound, the Th1/Th2 bias ([2]; PHA-stimulated PBMC, 96 hours, women with spontaneous and habitual abortion) was “shift from a Th1 towards a Th2 bias”, the activity of lymphocytes [2, 4] was “reduced the activity of lymphocytes” and the “release of progesterone induced blocking factor (PIBF)” value [2, 4] was “increased release”.
